According to BindingDB's records for doi:10.1016/j.ejmech.2019.111646 (Hangzhou Xixi Hospital, 2019):

Columns and labels:
[1] = Inhibition of 20S proteasome beta 2c (unknown origin) after 1 hr by fluorescence based assay
[2] = Inhibition of 20S proteasome beta 1c (unknown origin) after 1 hr by fluorescence based assay

IC50 [1]: 28 nM | IC50 [2]: 430 nM
SMILES: COc1ccc([C@@H](O)[C@H](NC(=O)[C@H](C)NC(=O)CN2CCOCC2)C(=O)N[C@@H](CC2=CCCC2)C(=O)[C@@]2(C)CO2)cc1 [Kzr-616]
